This note sets out measurements from patent EP4389751A1, “HETEROCYCLIC COMPOUNDS AND USES THEREOF” (Kumquat Biosciences Inc., priority 2021, dated 2024).

In one assay the target is T1, K-Ras G12S (Homo sapiens, UniProt P01116, G12S).
T1 construct: made in house; host or cells: E. coli (e.g., BL21 (DE3))
The assay can be described thus: HTRF assay of the K-Ras / SOS1 interaction. It is filed as biochemical. Particulars: IC50 (against K-Ras G12D) to IC50 (against K-Ras G12S). The gist of the method: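 Compounds (duplicates, 10 µM to 0.01 µM) were incubated ≥~10 min with Eu-labelled GST-K-Ras G12S and XL665-labelled His-hSOS1 in HEPES pH 7.4 buffer containing NaCl, DTT, BSA and Igepal. Disruption measured as HTRF emission ratio 665/620 nm, fitted to IC50.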
For orientation: In TR-FRET formats the signal depends on donor and acceptor labels being close together.

A further assay concerns A549 cells. The assay can be described thus: Cell proliferation assay (CellTiter-Glo), K-Ras G12S cells. Type of assay: cell-based. Particulars: Homo sapiens, A549, A549 cells (K-Ras G12S); bin 500 nM to 5 µM; read-out: Inhibition of A549 Cells (IC50). Here is the method:
A549 (ATCC CRL-185) and LS123 (ATCC CRL-255) cell lines comprise a G12S mutation and can be used to assess Ras cellular signaling in vitro, e.g., in response to the compounds herein. A549 culture medium is prepared with RPMI-1640 and 10% heat-inactivated FBS. LS123 culture medium is prepared with RPMI-1640 and 10% heat-inactivated FBS. A CellTiter-Glo (CTG) luminescent based assay (Promega) is used to assess growth of the cells, as a measurement of the ability of the compounds herein to inhibit Ras signaling in the cells. The cells (e.g., 800 per well) are seeded in their respective culture medium in standard tissue culture-treated 384-well format plates (Falcon #08-772-116) or ultra-low attachment surface 384-well format plates (S-Bio # MS-9384WZ). The day after plating, cells are treated with a dilution series (e.g., a 10 point 3-fold dilution series) of the compounds herein (e.g., approximately 40 µl final volume per well). Cell viability can be monitored (e.g., approximately 6 days later) according to the manufacturer's recommended instructions, where the CellTiter-Glo reagent is added (e.g., approximately 10 µl), vigorously mixed, covered, and placed on a plate shaker (e.g., approximately for 20 min) to ensure sufficient cell lysis prior to assessment of luminescent signal. The IC50 values are determined using the four parameter fit. The resulting IC50 value is a measurement of the ability of the compounds herein to reduce cell growth of Ras-driven cells (e.g., tumor cell lines) in vitro and/or in vivo.
For orientation: Cellular ATP, detected with luciferase, serves as a proxy for viable cell number.

Assay [1] concerns the target T2, KRAS protein (His-tagged GDP-loaded G12S 1-169) (Homo sapiens, UniProt P01116, G12S).
T2 construct: His-tagged GDP-loaded G12S 1-169
The assay can be described thus: Covalent modification of KRAS protein, intact-protein LC-MS. It is filed as binding. The conditions noted are these: 24hrs at room temperature, KRAS protein ~2 µM. Put shortly:
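Percent covalent modification derives from deconvoluted intact-mass intensities of compound-adducted versus unmodified KRAS, measured by LC-ESI-MS. Before analysis, ~2 µM GDP-loaded His-KRAS 1-169 was exposed to compound for 24 h at room temperature and acidified with formic acid.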

A further assay has as its system GP2D cells. The assay can be described thus: Cell proliferation assay (CellTiter-Glo), K-Ras G12D cells. The conditions noted are these: GP2D cells (K-Ras G12D); read-out: Inhibition of GP2D Cells (IC50). Type of assay: cell-based. The gist of the method: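 CellTiter-Glo luminescence, taken roughly 5 days after dosing, measured growth of G12D-mutant GP2D cells in DMEM/2 mM glutamine/10% FBS. Compound dilution series (e.g., 9 points, 3-fold) added the day after plating. Four-parameter fitting gave IC50.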

Molecules are shown by their SMILES.

For `N#Cc1c(N)sc2c(F)ccc(-c3c(Cl)cc4c(N5CCC6CN(C(=O)Nc7ncccn7)CCC65)nc(OC[C@@]56CCCN5C[C@H](F)C6)nc4c3F)c12` (single isomer, unassigned) [Compound A271], the “Ratio of IC50 KRAS G12D vs. IC50 KRAS G12S” value (“Ratio” below) at K-Ras G12S was “A (A: indicates that the ratio of IC50 against KrasG12D vs. IC50 against KrasG12S is 1-fold or greater)”. Also, the IC50 (commonly the concentration at which inhibition is half-maximal) in the assay on A549 cells lay in the range of 500 to 5000 nM.
For the compound `Nc1nc2c(-c3c(Cl)cc4c(N5CC6(CCCN(C(=O)n7cncn7)C6)C5)nc(OC[C@@]56CCCN5C[C@H](F)C6)nc4c3F)ccc(F)c2s1` [Compound A230, (2-(7-(2-amino-7-fluorobenzo[d]thiazol-4-yl)-6-chloro-8-fluoro-2-(((2R,7aS)-2-fluorotetrahydro-1H-pyrrolizin-7a(5H)-yl)methoxy)quinazolin-4-yl)-2,6-diazaspiro[3.5]nonan-6-yl)(1H-1,2,4-triazol-1-yl)methanone], the “Ratio” value on K-Ras G12S is listed as “A (A: indicates that the ratio of IC50 against KrasG12D vs. IC50 against KrasG12S is 1-fold or greater)”. Moreover, the “% G12S Modification at 24 hr.” value in assay [1] is reported as “+++ (+++ indicates greater than 20% labelling)”. Also, the IC50 in the assay on GP2D cells fell in the range of 1000 to 10000 nM.
In the case of `Nc1nc2c(-c3c(Cl)cc4c(N5CCOC6(CCN(C(=O)n7cncn7)CC6)C5)nc(OCC56CCCN5C[C@H](F)C6)nc4c3F)ccc(F)c2s1` (stereo partly drawn) [Compound A243, (4-(7-(2-amino-7-fluorobenzo[d]thiazol-4-yl)-6-chloro-8-fluoro-2-(((2R)-2-fluorotetrahydro-1H-pyrrolizin-7a(5H)-yl)methoxy)quinazolin-4-yl)-1-oxa-4,9-diazaspiro [5.5]undecan-9-yl)(1H-1,2,4-triazol-1-yl)methanone], the “Ratio” value at K-Ras G12S is “A (A: indicates that the ratio of IC50 against KrasG12D vs. IC50 against KrasG12S is 1-fold or greater)”. Further, in assay [1], the “% G12S Modification at 24 hr.” value was “+++ (+++ indicates greater than 20% labelling)”. Moreover, the 50% inhibitory concentration (IC50) with GP2D cells is 1000 to 10000 nM.
Turning to `N#Cc1cnn(C(=O)N2CCN(c3nc(OC[C@@]45CCCN4C[C@H](F)C5)nc4c(F)c(-c5ccc(F)c6sc(N)nc56)c(Cl)cc34)CC2)c1` [Compound A252, 1-(4-(7-(2-amino-7-fluorobenzo[d]thiazol-4-yl)-6-chloro-8-fluoro-2-(((2R,7aS)-2-fluorotetrahydro-1H-pyrrolizin-7a(5H)-yl)methoxy)quinazolin-4-yl)piperazine-1-carbonyl)-1H-pyrazole-4-carbonitrile], the “Ratio” value on K-Ras G12S is listed as “A (A: indicates that the ratio of IC50 against KrasG12D vs. IC50 against KrasG12S is 1-fold or greater)”. The “% G12S Modification at 24 hr.” value in assay [1] is recorded as “+++ (+++ indicates greater than 20% labelling)”. Further, the concentration for half-maximal inhibition (IC50) with GP2D cells lay in the range of 1000 to 10000 nM.
Turning to `N#Cc1c(N)sc2c(F)ccc(-c3c(Cl)cc4c(N5CC6(CCCN(C(=O)n7cncn7)C6)C5)nc(OC[C@@]56CCCN5C[C@H](F)C6)nc4c3F)c12` [Compound A266, 4-(4-(6-(1H-1,2,4-triazole-1-carbonyl)-2,6-diazaspiro[3.5]nonan-2-yl)-6-chloro-8-fluoro-2-(((2R,7aS)-2-fluorotetrahydro-1H-pyrrolizin-7a(5H)-yl)methoxy)quinazolm-7-yl)-2-amino-7-fluorobenzo[b]thiophene-3-carbonitrile], at K-Ras G12S, the “Ratio” value was “A (A: indicates that the ratio of IC50 against KrasG12D vs. IC50 against KrasG12S is 1-fold or greater)”. The “% G12S Modification at 24 hr.” value in assay [1] is “+++ (+++ indicates greater than 20% labelling)”. Besides, the IC50 with GP2D cells lay in the range of 1000 to 10000 nM.
As to `Nc1nc2c(-c3c(Cl)cc4c(N5CC6(CN(C(=O)n7cncn7)CCO6)C5)nc(OC[C@@]56CCCN5C[C@H](F)C6)nc4c3F)ccc(F)c2s1` [Compound A268, (2-(7-(2-amino-7-fluorobenzo[d]thiazol-4-yl)-6-chloro-8-fluoro-2-(((2R,7aS)-2-fluorotetrahydro-1H-pyrrolizin-7a(5H)-yl)methoxy)quinazolin-4-yl)-5-oxa-2,8-diazaspiro[3.5]nonan-8-yl)(1H-1,2,4-triazol-1-yl)methanone], the “Ratio” value at K-Ras G12S is recorded as “A (A: indicates that the ratio of IC50 against KrasG12D vs. IC50 against KrasG12S is 1-fold or greater)”. The “% G12S Modification at 24 hr.” value in assay [1] is reported as “+++ (+++ indicates greater than 20% labelling)”. Further, in the assay on GP2D cells, the IC50 was in the range of 1000 to 10000 nM.
Taken in the same sequence, the figures for `N#Cc1c(N)sc2c(F)ccc(-c3c(Cl)cc4c(N5CCCC6(CCN(C(=O)n7cncn7)C6)C5)nc(OC[C@@]56CCCN5C[C@H](F)C6)nc4c3F)c12` (stereo partly drawn) [Compound A269, 4-(4-(2-(1H-1,2,4-triazole-1-carbonyl)-2,7-diazaspiro[4.5]decan-7-yl)-6-chloro-8-fluoro-2-(((2R,7aS)-2-fluorotetrahydro-1H-pyrrolizin-7a(5H)-yl)methoxy)quinazolin-7-yl)-2-amino-7-fluorobenzo[b]thiophene-3-carbonitrile] were “A (A: indicates that the ratio of IC50 against KrasG12D vs. IC50 against KrasG12S is 1-fold or greater)”, “++ (++ indicates between about 1%- 20% labelling)” and 1000 to 10000 nM.
With `Nc1nc2c(-c3c(Cl)cc4c(N5CCOC6(CN(C(=O)n7cncn7)C6)C5)nc(OC[C@@]56CCCN5C[C@H](F)C6)nc4c3F)ccc(F)c2s1` [Compound A273, (8-(7-(2-amino-7-fluorobenzo[d]thiazol-4-yl)-6-chloro-8-fluoro-2-(((2R,7aS)-2-fluorotetrahydro-1H-pyrrolizin-7a(5H)-yl)methoxy)quinazolin-4-yl)-5-oxa-2,8-diazaspiro[3.5]nonan-2-yl)(1H-1,2,4-triazol-1-yl)methanone], on K-Ras G12S, the “Ratio” value is reported as “A (A: indicates that the ratio of IC50 against KrasG12D vs. IC50 against KrasG12S is 1-fold or greater)”. For the same compound, the “% G12S Modification at 24 hr.” value in assay [1] is given as “+++ (+++ indicates greater than 20% labelling)”. The 50% inhibitory concentration (IC50) in the assay with GP2D cells lay in the range of 1000 to 10000 nM.
Taken in the same sequence, the figures for `Nc1nc2c(-c3c(Cl)cc4c(N5CC6(CCN(C(=O)n7cncn7)C6)C5)nc(OC[C@@]56CCCN5C[C@H](F)C6)nc4c3F)ccc(F)c2s1` [Compound A279, (2-(7-(2-amino-7-fluorobenzo[d]thiazol-4-yl)-6-chloro-8-fluoro-2-(((2R,7aS)-2-fluorotetrahydro-1H-pyrrolizin-7a(5H)-yl)methoxy)quinazolin-4-yl)-2,6-diazaspiro[3.4]octan-6-yl)(1H-1,2,4-triazol-1-yl)methanone] were “A (A: indicates that the ratio of IC50 against KrasG12D vs. IC50 against KrasG12S is 1-fold or greater)”, “+++ (+++ indicates greater than 20% labelling)” and 1000 to 10000 nM.
With `N#Cc1c(N)sc2c(F)ccc(-c3c(Cl)cc4c(N5CCN(C(=O)n6cncn6)CC(F)(F)C5)nc(OC[C@@]56CCCN5C[C@H](F)C6)nc4c3F)c12` [Compound A280, 2-amino-4-(6-chloro-4-(6,6-difluoro-4-(1H-1,2,4-triazole-1-carbonyl)-1,4-diazepan-1-yl)-8-fluoro-2-(((2R,7aS)-2-fluorotetrahydro-1H-pyrrolizin-7a(5H)-yl)methoxy)quinazolin-7-yl)-7-fluorobenzo[b]thiophene-3-carbonitrile], the “Ratio” value at K-Ras G12S was “A (A: indicates that the ratio of IC50 against KrasG12D vs. IC50 against KrasG12S is 1-fold or greater)”. In addition, the “% G12S Modification at 24 hr.” value in assay [1] is reported as “+++ (+++ indicates greater than 20% labelling)”. Besides, in the assay on GP2D cells, the 50% inhibitory concentration (IC50) was ≤ 1000 nM.
Taken in the same sequence, the figures for `CC1(C)CN(c2nc(OC[C@@]34CCCN3C[C@H](F)C4)nc3c(F)c(-c4ccc(F)c5sc(N)c(C#N)c45)c(Cl)cc23)CC2(CN(C(=O)n3cncn3)C2)O1` [Compound A296, 2-amino-4-(6-chloro-4-(6,6-dimethyl-2-(1H-1,2,4-triazole-1-carbonyl)-5-oxa-2,8-diazaspiro[3.5]nonan-8-yl)-8-fluoro-2-(((2R,7aS)-2-fluorotetrahydro-1H-pyrrolizin-7a(5H)-yl)methoxy)quinazolin-7-yl)-7-fluorobenzo[b]thiophene-3-carbonitrile] were “A (A: indicates that the ratio of IC50 against KrasG12D vs. IC50 against KrasG12S is 1-fold or greater)”, “+++ (+++ indicates greater than 20% labelling)” and 1000 to 10000 nM.
